# Legend:
# hepsin = conditions: cited from earlier work
# Recombinant hepsin = molecular target: T1, Recombinant hepsin (Homo sapiens, UniProt P05981); experiment: In vitro binding assay (fluorogenic BOC–QAR–AMC substrate), hepsin; type: biochemical; conditions: for Ki: 0.3 nM enzyme, 150 μM substrate, Ki by Cheng and Prusoff from IC50, three determinations; for Matriptase/ Hepsin (hepsin selectivity, ratio of Ki values): ratio of Ki values for matriptase and hepsin
# T1 construct: purchased R&D Systems
# T1 sequence (P05981 163-417 limits assumed): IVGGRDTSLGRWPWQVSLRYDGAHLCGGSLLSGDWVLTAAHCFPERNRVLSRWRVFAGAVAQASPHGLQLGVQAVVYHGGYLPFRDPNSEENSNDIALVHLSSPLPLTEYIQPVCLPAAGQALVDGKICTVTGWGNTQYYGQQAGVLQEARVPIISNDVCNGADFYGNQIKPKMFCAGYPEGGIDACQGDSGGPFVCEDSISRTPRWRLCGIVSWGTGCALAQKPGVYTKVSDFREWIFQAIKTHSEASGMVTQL
# T1 sequence (P05981 1-162 partner limits assumed): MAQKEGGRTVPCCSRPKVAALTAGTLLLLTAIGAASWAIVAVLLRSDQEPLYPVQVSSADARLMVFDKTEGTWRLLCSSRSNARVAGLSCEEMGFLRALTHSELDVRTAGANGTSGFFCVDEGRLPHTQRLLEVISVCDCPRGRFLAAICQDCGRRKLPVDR
# Description: Recombinant hepsin (R&D Systems, Minneapolis, MN, USA) was diluted 5.5-fold in TNC buffer (25 mM Tris-HCl, 150 mM NaCl, 5 mM CaCl2, 0.01% Triton X-100, pH 8) and incubated at 37 °C. After 24 h, hepsin was diluted in glycerol to 50%. The stock solution (1.2 μM) was stored at −81 °C and diluted in TNC buffer before use.
# (§1) Ligands (0.03 nM–30 µM) were diluted in DMSO (2% final concentration) and mixed with either activated hepsin or matriptase in 96-well plates. The final assay concentration for both hepsin and matriptase in TNC buffer was 0.3 nM. After an incubation period of 30 min at 37 °C, BOC–QAR–AMC substrate (R&D Systems) was added to hepsin and matriptase assay mixtures. The final substrate concentration was 150 μM in a final reaction volume of 100 μL.
# (§2) Changes in fluorescence (excitation at 380 nm and emission at 460 nm) were measured at room temperature over 2 h in a BioTek Synergy two-plate reader (Agilent Technologies). Using the GraphPad Prism version 6.02 software (San Diego, CA, USA), a non-linear curve fit was performed to determine the inhibitor IC50s from a plot of the mean reaction velocity versus the inhibitor concentration. The IC50 values represent the average of three experimental determinations (Figure S1). Ki values were calculated using the Cheng and Prusoff equation (Ki = IC50/(1 + [S]/Km)).
# matriptase = molecular target: T2, matriptase (Homo sapiens, UniProt Q9Y5Y6); experiment: In vitro binding assay (fluorogenic BOC–QAR–AMC substrate), matriptase; type: biochemical; conditions: 0.3 nM enzyme, 150 μM substrate, Ki by Cheng and Prusoff from IC50, three determinations
# T2 sequence (Q9Y5Y6 1-855): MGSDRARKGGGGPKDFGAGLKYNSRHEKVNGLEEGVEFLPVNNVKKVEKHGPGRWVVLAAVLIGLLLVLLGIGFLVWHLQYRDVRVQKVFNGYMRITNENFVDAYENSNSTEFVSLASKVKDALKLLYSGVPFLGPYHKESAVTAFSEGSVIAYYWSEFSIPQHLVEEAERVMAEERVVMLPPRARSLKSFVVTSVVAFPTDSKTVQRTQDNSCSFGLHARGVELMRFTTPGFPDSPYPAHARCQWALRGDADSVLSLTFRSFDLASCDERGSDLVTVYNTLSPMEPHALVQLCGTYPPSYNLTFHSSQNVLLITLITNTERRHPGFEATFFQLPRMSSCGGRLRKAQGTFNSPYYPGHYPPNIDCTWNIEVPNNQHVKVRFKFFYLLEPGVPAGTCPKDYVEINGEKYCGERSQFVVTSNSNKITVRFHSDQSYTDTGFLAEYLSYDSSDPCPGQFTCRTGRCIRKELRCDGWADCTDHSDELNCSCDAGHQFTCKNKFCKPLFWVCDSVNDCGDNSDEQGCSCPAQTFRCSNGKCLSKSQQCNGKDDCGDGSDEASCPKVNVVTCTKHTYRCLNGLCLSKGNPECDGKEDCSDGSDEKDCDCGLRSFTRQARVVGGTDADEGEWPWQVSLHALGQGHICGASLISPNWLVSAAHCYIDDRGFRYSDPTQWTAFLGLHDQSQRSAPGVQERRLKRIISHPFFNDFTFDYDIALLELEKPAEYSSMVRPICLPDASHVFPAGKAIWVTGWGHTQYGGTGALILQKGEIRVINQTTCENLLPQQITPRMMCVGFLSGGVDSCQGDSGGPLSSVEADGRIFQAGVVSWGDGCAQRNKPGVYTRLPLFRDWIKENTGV
# Description: as §1, §2
Compound,Ki (Recombinant hepsin) [nM],"Matriptase/ Hepsin (hepsin selectivity, ratio of Ki values) (Recombinant hepsin)",Ki (matriptase) [nM],"hepsin selectivity (ratio of Ki values for matriptase and hepsin), previous reported value (hepsin)","Ki (hepsin; read-out: Ki hepsin, previous reported value) [nM]"
"CC(=O)N[C@@H](CC(C)C)C(=O)NC(CCCNC(=N)N)C(=O)c1nccs1 (some centres unmarked) [Ac–Leu–Arg–kt, reference compound]",7.8 ± 2.8,7.2,56.5 ± 2.7,14.9,22.4 ± 0.5
"^natCu-DOTA-conjugated 1-amino-N-(1-((5-guanidino-1-oxo-1-(thiazol-2-yl)pentan-2-yl)amino)-4-methyl-1-oxopentan-2-yl)-3,6,9,12-tetraoxapentadecan-15-amide [Ligand 3A]",15 ± 0.6,16.6,249 ± 12.3,,
"^natCu-DOTA-conjugated 1-amino-N-(1-((5-guanidino-1-oxo-1-(thiazol-2-yl)pentan-2-yl)amino)-4-methyl-1-oxopentan-2-yl)-3,6,9,12-tetraoxapentadecan-15-amide [Ligand 3B]",5.1 ± 0.3,23.5,120 ± 3.5,,
"^natGa-DOTA-conjugated 1-amino-N-(1-((5-guanidino-1-oxo-1-(thiazol-2-yl)pentan-2-yl)amino)-4-methyl-1-oxopentan-2-yl)-3,6,9,12-tetraoxapentadecan-15-amide [Ligand 2A]",14.3 ± 1.2,11.6,166 ± 8.2,,
"^natGa-DOTA-conjugated 1-amino-N-(1-((5-guanidino-1-oxo-1-(thiazol-2-yl)pentan-2-yl)amino)-4-methyl-1-oxopentan-2-yl)-3,6,9,12-tetraoxapentadecan-15-amide [Ligand 2B]",5.7 ± 0.2,12.0,68.2 ± 2.4,,

# The next compounds have a lower Ki (Recombinant hepsin) than those just listed; values first:
Ki (Recombinant hepsin) [nM],"Matriptase/ Hepsin (hepsin selectivity, ratio of Ki values) (Recombinant hepsin)",Ki (matriptase) [nM],Compound,"hepsin selectivity (ratio of Ki values for matriptase and hepsin), previous reported value (hepsin)","Ki (hepsin; read-out: Ki hepsin, previous reported value) [nM]"
0.9 ± 0.1,60.6,54.5 ± 4.9,"CC(C)C[C@H](NC(=O)CCc1cn(CCOCCOCCF)nn1)C(=O)NC(CCCNC(=N)N)C(=O)c1nccs1 (stereo partly drawn) [Ligand 1A, (2S)-2-(3-(1-(2-(2-(2-Fluoroethoxy)ethoxy)ethyl)-1H-1,2,3-triazol-4-yl)propanamido)-N-(5-guanidino-1-oxo-1-(thiazol-2-yl)pentan-2-yl)-4-methylpentanamide]",,
0.5 ± 0.1,40.0,20 ± 0.6,"CC(C)C[C@H](NC(=O)CCc1cn(CCOCCOCCF)nn1)C(=O)NC(CCCNC(=N)N)C(=O)c1nccs1 (stereo partly drawn) [Ligand 1B, (2S)-2-(3-(1-(2-(2-(2-Fluoroethoxy)ethoxy)ethyl)-1H-1,2,3-triazol-4-yl)propanamido)-N-(5-guanidino-1-oxo-1-(thiazol-2-yl)pentan-2-yl)-4-methylpentanamide]",,

# From PMC9503212, “A High-Affinity ^64Cu-Labeled Ligand for PET Imaging of Hepsin: Design, Synthesis, and Characterization” (Pharmaceuticals, 2022)
